Values of other authors, collected in patent publication US20040166069A1, “Boosting Tyrosinase Inhibiting Activity of Skin Whitening and Sunscreen Compositions” (priority 2003, published 2004).

Test system: de-pigmentation
Details: relative to hydroquinone

Compound | quantity required compared to the quantity of hydroquinone used to achieve a similar effect
OC[C@H]1O[C@@H](Oc2ccc(O)cc2)[C@H](O)[C@@H](O)[C@@H]1O [arbutin] | over 100 times
O=C1O[C@H]([C@@H](O)CO)C(O)=C1O [ascorbic acid] | 17 times
